Reference: US20050232912A1, “Enzyme phosphorylating ser46 of p53” (priority 2001, published 2005)

Tested on: Human breast cancer cells MCF-7
Assay: Ser46-phosphorylating activity of nuclear extracts from doxorubicin-treated cells, Western blotting with anti-p53-phosphorylated-Ser46 antibodies
Format: cell-based
Settings: MCF-7 cells, 3 μM doxorubicin, during 12 hours after treatment, substrate GST-p53
Protocol: Human breast cancer cells MCF-7 (hereinafter called “MCF-7”, ATCC) were cultured in DMEM medium (Sigma) containing 10% fetal bovine serum (GIBCO BRL) on 15 cm^2 dishes (Corning) up to 90% confluent state. These cells were treated with final 3 μM doxorubicin (Sigma, the same to adriamycin) by addition of its aqueous solution to the medium. After allowed to stand in an incubator, the cells were harvested at various time points.
The harvested cells from one dish were suspended and solubilized in 500 μl of cytoplasm extraction buffer (10 mM HEPES pH7.9, 2 mM MgCl2, 0.1 mM EDTA, 0.1 mM EGTA, 1% Nonidet NP-40, DTT 1 mM, Na3VO4 1 mM, NaF 5 mM, PMSF 0.5 mM, KCl 10 mM, leupeptin 5 μg/ml, antipain 5 μg/ml, chymostatin 5 μg/ml, pepstatinA 2 μg/ml). The solbilized cells were centrifuged at 15,000 rpm for 15 min. The pellets obtained were mixed with 100 μl nuclear extraction buffer (10 mM HEPES pH7.9, 2 mM MgCl2, 0.1 mM EDTA, 0.1 mM EGTA, 1% Nonidet NP-40, DTT 1 mM, Na3VO4 1 mM, NaF 5 mM, PMSF 0.5 mM, KCl 10 mM, NaCl 500 mM, leupeptin 5 μg/ml, antipain 5 μg/ml, chymostatin 5 μg/ml, pepstatinA 2 μg/ml), suspended well and centrifuged at 15,000 rpm for 15 min. […]
Next, the enzyme activity of the nuclear extracts was assayed using the antibodies. […] The phosphorylation of GST-p53 was detected in Western blotting probed with anti-p53-phosphorylated-Ser46 antibodies.

SMILES: COc1cccc2c1C(=O)c1c(O)c3c(c(O)c1C2=O)C[C@@](O)(C(=O)CO)C[C@@H]3O[C@H]1C[C@H](N)[C@H](O)[C@H](C)O1 [doxorubicin]
- activation of enzyme phosphorylating Ser46 of p53: greatly induced
